Data reported in patent publication US20140243418A1, “RASAGILINE FOR PARKINSON'S DISEASE MODIFICATION” (Teva Pharmaceutical Industries, Ltd., priority 2008, published 2014).
Where “and” joins values, the source holds several entries; their conditions need not be identical. Equal values may be shown once. Read-outs that look alike come from different tables or passages of the source.

System: Early Stage PD patients
Settings: for Primary 1: rate of change in UPDRS, weeks 12-36, 1 mg/day - placebo / Secondary Endpoint: change in total UPDRS from baseline to final visit in phase I, 1 mg/day - placebo: rasagiline 1 mg/day minus placebo; for Primary 1: rate of change in UPDRS, weeks 12-36, 2 mg/day - placebo / Secondary Endpoint: change in total UPDRS from baseline to final visit in phase I, 2 mg/day - placebo: rasagiline 2 mg/day minus placebo
Procedure: 1 mg/day rasagiline during Phase I and Phase II; • Group 2. 2 mg/day rasagiline during Phase I and Phase II; • Group 3. placebo during Phase I followed by 1 mg/day rasagiline during Phase II; and • Group 4. placebo during Phase I followed by 2 mg/day rasagiline during Phase II.
Thus, ‘early-start’ patients receive 72 weeks of treatment with rasagiline (1 or 2 mg once daily) and ‘delayed-start’ patients receive 36 weeks of placebo followed by 36 weeks of rasagiline (1 or 2 mg once daily). […] If subjects in either treatment group required additional anti-parkinsonian medication during the placebo-controlled stage of the trial, they could proceed directly to Phase II. Once in Phase II, no additional anti-PD therapy is permitted. If the patient requires additional medication in this stage they are discontinued from the study.
1 mg/day rasagiline during Phase I and Phase II (1 mg early start) • 2. 2 mg/day rasagiline during Phase I and Phase II (2 mg early start) • 3. placebo during Phase I followed by 1 mg/day rasagiline during Phase II (1 mg delayed start) • 4. placebo during Phase I followed by 2 mg/day rasagiline during Phase II (2 mg delayed start)
If, at any stage during the placebo-controlled phase the investigator determines that a subject needs additional anti-PD therapy, the subject will proceed to Phase II of the study. The investigator, aided by a questionnaire, will give careful consideration to the issue of a subject's need for additional anti-PD therapy. Scheduled in-clinic visits will be conducted at baseline and at weeks 4, 12, 24 and 36. Therefore, altogether there will be 5 scheduled visits during this phase. Unscheduled visits may be conducted at any time to assess a subject's need for additional anti-PD therapy, for safety reasons or for any other reason.
Thus, subjects who receive 1 mg rasagiline during Phase I will continue to receive 1 mg during Phase II, subjects who receive 2 mg rasagiline during Phase I will continue to receive 2 mg during Phase II, and subjects who receive placebo during Phase I will receive either 1 mg or 2 mg rasagiline during Phase II. The study blind will be maintained. No additional anti-PD therapy will be permitted during this phase. This applies to both the subjects who enter Phase II after completing the full 36-week duration of Phase I and to subjects who are switched from Phase I to Phase II because of a need of additional anti-PD therapy. If, the investigator determines that a subject needs additional anti-PD therapy during Phase II, the subject will be prematurely withdrawn from the study. The investigator, aided by a questionnaire, will give careful consideration to the issue of a subject's need for additional anti-PD therapy. Scheduled in-clinic visits will be conducted every 6 weeks. Therefore, altogether there will be 6 visits during this phase—at weeks 42, 48, 54, 60, 66 and 72. Unscheduled visits may be conducted at any time to assess a subject's need for additional anti-PD therapy, for safety reasons or for any other reason.

[1] = Baseline UPDRS > 25.5 (Upper Quartile)
[2] = Baseline UPDRS ≦ 25.5 (Lower 3 Quartiles)
[3] = rasagiline 1 mg/day, Baseline UPDRS > 25.5 (Upper Quartile)
[4] = rasagiline 1 mg/day, Baseline UPDRS ≦ 25.5 (Lower 3 Quartiles)
[5] = rasagiline 1 mg/day, all subjects
[6] = rasagiline 1 mg/day, all subjects, listed as Rasagiline
[7] = rasagiline 2 mg/day delayed-start, Baseline UPDRS > 25.5 (Upper Quartile)
[8] = rasagiline 2 mg/day delayed-start, Baseline UPDRS ≦ 25.5 (Lower 3 Quartiles)
[9] = rasagiline 2 mg/day delayed-start, all subjects
[10] = rasagiline 2 mg/day early-start minus delayed-start, Baseline UPDRS > 25.5 (Upper Quartile)
[11] = rasagiline 2 mg/day early-start minus delayed-start, Baseline UPDRS ≦ 25.5 (Lower 3 Quartiles)
[12] = rasagiline 2 mg/day early-start, Baseline UPDRS > 25.5 (Upper Quartile)
[13] = rasagiline 2 mg/day early-start, Baseline UPDRS ≦ 25.5 (Lower 3 Quartiles)
[14] = rasagiline 2 mg/day early-start, all subjects
[15] = rasagiline 2 mg/day, Baseline UPDRS > 25.5 (Upper Quartile)
[16] = rasagiline 2 mg/day, Baseline UPDRS ≦ 25.5 (Lower 3 Quartiles)
[17] = rasagiline 2 mg/day, all subjects

SMILES: C#CCN[C@@H]1CCc2ccccc21 [rasagiline]
- Primary 1: rate of change in UPDRS, weeks 12-36, 1 mg/day - placebo [1]: −0.11 UPDRS units/wk
- Secondary Endpoint: change in total UPDRS from baseline to final visit in phase I, 1 mg/day - placebo [1]: −6.43
- Primary 1: rate of change in UPDRS, weeks 12-36, 1 mg/day - placebo [2]: −0.03 UPDRS units/wk
- Secondary Endpoint: change in total UPDRS from baseline to final visit in phase I, 1 mg/day - placebo [2]: −2.34
- Primary 1: rate of change in UPDRS, weeks 12-36, 1 mg/day - placebo (all subjects): −0.05±0.02 UPDRS units/wk and −0.05 UPDRS units/wk
- Secondary Endpoint: change in total UPDRS from baseline to final visit in phase I, 1 mg/day - placebo (all subjects): −3.01±0.43 and −3.01
- Primary 1: rate of change in UPDRS, weeks 12-36 [3]: 0.14 UPDRS units/wk
- Secondary Endpoint: change in total UPDRS from baseline to final visit in phase I [3]: 0.27
- Primary 1: rate of change in UPDRS, weeks 12-36 [4]: 0.08 UPDRS units/wk
- Secondary Endpoint: change in total UPDRS from baseline to final visit in phase I [4]: 1.40
- Change from baseline to week 72 in Total-UPDRS, early- vs delayed-start, Estimate (rasagiline 1 mg/day, Completers (n = 409), MMRM (week 48-72)): −1.6
- Change from baseline to week 72 in Total-UPDRS, early- vs delayed-start, Estimate (rasagiline 1 mg/day, ITT cohort (observed data), MMRM (weeks 12-72)): −1.7
- Change from baseline to week 72 in Total-UPDRS, early- vs delayed-start, Estimate (rasagiline 1 mg/day, Imputed - primary study cohort, Imputation by means of the delayed-start group (week 48-72)): −1.2
- Change from baseline to week 72 in Total-UPDRS, early- vs delayed-start, Estimate (rasagiline 1 mg/day, Imputed - primary study cohort, Multiple imputation (week 48-72)): −1.8
- Change from baseline to week 72 in Total-UPDRS, early- vs delayed-start, Estimate (rasagiline 1 mg/day, Per protocol (n = 405), MMRM (week 48-72)): −1.6
- Change from baseline to week 72 in Total-UPDRS, early- vs delayed-start, Estimate (rasagiline 1 mg/day, Primary study cohort (n = 489), MMRM (week 48-72)): −1.7
- Change from baseline to week 72 in Total-UPDRS, early- vs delayed-start, Estimate (rasagiline 1 mg/day, Primary study cohort, ANCOVA with LOCF): −1.7
- Change from baseline to week 72 in Total-UPDRS, early- vs delayed-start, Estimate (rasagiline 1 mg/day, Primary study cohort, MMRM, average change from baseline across weeks 48-72): −1.6
- Primary 1: rate of change in UPDRS, weeks 12-36 [5]: 0.09 UPDRS units/wk
- Secondary Endpoint: change in total UPDRS from baseline to final visit in phase I [5]: 1.26
- outcome of the primary analysis (three hierarchal endpoints) [5]: met all three primary analysis endpoints
- Primary 1: rate of change in UPDRS, weeks 12-36 [6]: 0.09±0.02 UPDRS units/wk
- outcome of the primary analysis (three hierarchal endpoints) [6]: met all endpoints
- Primary 2: estimated change in total UPDRS from baseline to week 72 [7]: 5.09
- Primary 3: rate of change in UPDRS, weeks 48-72 [7]: 0.137 UPDRS units/wk
- Primary 2: estimated change in total UPDRS from baseline to week 72 [8]: 2.60
- Primary 3: rate if change in UPDRS, weeks 48-72 [8]: 0.05 UPDRS units/wk
- Primary 2: estimated change in total UPDRS from baseline to week 72 [9]: 3.11
- Primary 3: rate of change in UPDRS, weeks 48-72 [9]: 0.065 UPDRS units/wk
- Primary 2: estimated change in total UPDRS from baseline to week 72 (rasagiline 2 mg/day delayed-start, all subjects, listed as Rasagiline): 3.11±0.5
- Primary 2: estimated change in total UPDRS from baseline to week 72, early-start-delayed-start [10]: −3.63±1.72 and −3.63
- Primary 3: rate of change in UPDRS, weeks 48-72, early-start-delayed start [10]: −0.03 UPDRS units/wk
- Primary 2: estimated change in total UPDRS from baseline to week 72, early-start-delayed-start [11]: 1.10
- Primary 3: rate if change in UPDRS, weeks 48-72, early-start-delayed start [11]: 0.05 UPDRS units/wk
- Primary 2: estimated change in total UPDRS from baseline to week 72, early-start-delayed-start (rasagiline 2 mg/day early-start minus delayed-start, all subjects): 0.36±0.68 and 0.36
- Primary 3: rate of change in UPDRS, weeks 48-72, early-start-delayed start (rasagiline 2 mg/day early-start minus delayed-start, all subjects, non-inferiority margin 0.15): 0.03 UPDRS units/wk
- Primary 2: estimated change in total UPDRS from baseline to week 72 [12]: 1.46
- Primary 3: rate of change in UPDRS, weeks 48-72 [12]: 0.106 UPDRS units/wk
- Primary 2: estimated change in total UPDRS from baseline to week 72 [13]: 3.70
- Primary 3: rate if change in UPDRS, weeks 48-72 [13]: 0.09 UPDRS units/wk
- Primary 2: estimated change in total UPDRS from baseline to week 72 [14]: 3.47
- Primary 3: rate of change in UPDRS, weeks 48-72 [14]: 0.094 UPDRS units/wk
- Primary 2: estimated change in total UPDRS from baseline to week 72 (rasagiline 2 mg/day early-start, all subjects, listed as Rasagiline): 3.47±0.5
- Primary 1: rate of change in UPDRS, weeks 12-36, 2 mg/day - placebo [1]: −0.20 UPDRS units/wk
- Secondary Endpoint: change in total UPDRS from baseline to final visit in phase I, 2 mg/day - placebo [1]: −7.13
- Primary 1: rate of change in UPDRS, weeks 12-36, 2 mg/day - placebo [2]: −0.03 UPDRS units/wk
- Secondary Endpoint: change in total UPDRS from baseline to final visit in phase I, 2 mg/day - placebo [2]: −2.16
- Primary 1: rate of change in UPDRS, weeks 12-36, 2 mg/day - placebo (all subjects): −0.07±0.02 UPDRS units/wk and −0.07 UPDRS units/wk
- Secondary Endpoint: change in total UPDRS from baseline to final visit in phase I, 2 mg/day - placebo (all subjects): −3.15±0.43 and −3.15
- Primary 1: rate of change in UPDRS, weeks 12-36 [15]: 0.05 UPDRS units/wk
- Secondary Endpoint: change in total UPDRS from baseline to final visit in phase I [15]: −0.43
- Primary 1: rate of change in UPDRS, weeks 12-36 [16]: 0.07 UPDRS units/wk
- Secondary Endpoint: change in total UPDRS from baseline to final visit in phase I [16]: 1.58
- Primary 1: rate of change in UPDRS, weeks 12-36 [17]: 0.07 UPDRS units/wk
- Secondary Endpoint: change in total UPDRS from baseline to final visit in phase I [17]: 1.11
- outcome of the primary analysis (three hierarchal endpoints) [17]: did not meet all three endpoints
- outcome of the primary analysis (three hierarchal endpoints) (rasagiline 2 mg/day, all subjects, listed as Rasagiline): did not meet all endpoints
